Data taken from patent US8349791B2, “Polypeptides that bind membrane proteins” (The Trustees of the University of Pennsylvania, priority 2006, dated 2013).
Peptide text beside a SMILES is read from it.

Columns and labels:
αv TM domain = molecular target: T1, αv TM domain (Homo sapiens, UniProt P06756); test: DN-TOXCAT heterodimerization; assay type: cell-based; conditions: coexpressed in bacterial membranes
T1 construct: expressed in transfected cells; host or cells: E. coli MM39, pDNToxR-Duet
Protocol: Both the affinity and specificity of the membrane protein-binding peptides for their targets when coexpressed in bacterial membranes were assessed with a DN-“TOXCAT” assay (FIGS. 3a-3c). In TOXCAT, a TM sequence of interest is fused to a ToxR protein (TM-ToxR) that binds to the ctx promoter as a dimer, which induces expression of chloramphenicol acetyltransferase (CAT) (W. P. Russ, D. M. Engelman, Proc. Natl. Acad. Sci. U.S.A. 96, 863 (1999); D. Langosch, B. Brosig, H. Kolmar, H. J. Fritz, J. Mol. Biol. 263, 525 (1996)). In the DN assay, the TM1-ToxR fusion protein is coexpressed with a second fusion protein (TM2-ToxR*) containing a nonfunctional mutant of the ToxR domain. TM-driven dimerization leads to a ToxR-ToxR* dimer that is unable to bind the ctx promoter or to induce CAT synthesis (FIG. 3a). The resulting decrease in CAT activity can be used to monitor the formation of a heterodimeric TM complex. In principle, this assay could be accomplished by adding an exogenous synthetic peptide (D. Gerber, N. Sal-Man, Y. Shai, J. Mol. Biol. 339, 243 (2004)); however, it is difficult to assure that different peptides will be similarly inserted into the Escherichia coli inner membrane.
For testing the specificity of the designed membrane protein-binding polypeptide sequences against the integrin TM domains, the designed sequences (anti-αIIb and anti-αV) were cloned into MCS1 of the Duet vector and the integrin TM domains into MCS2 of the Duet vector. In this configuration, the integrin TMs compete for the homodimers formed by the polypeptide sequences, with the decrease in CAT signal proportional to the extent of heterodimerization between a given integrin TM and polypeptide sequence relative to the homodimerization of the polypeptide sequence.
Single MM39 colonies containing pDNToxR-Duet constructs from selective plates were chosen, inoculated in 5 mL of LB medium containing 100 μg/mL ampicillin and grown to an OD600 of 0.2 at 37° C. with vigorous shaking. IPTG was added to the medium at a final concentration of 0.1 mM IPTG and grown to an OD600 of 0.7. Purification, immunoblotting, CAT ELISA and MalE complementation assays are essentially as described previously. Li, R., Gorelik, R., Nanda, V., Law, P. B., Lear, J. D., DeGrado, W. F. and Bennett, J. S. J. Biol. Chem. 2004, 279, 26666-26673 (2004). For immunoblotting, anti-MBP (NEB) was used for pccKAN (TOXCAT) constructs, whereas anti-myc (Covance) and anti-HA (Covance) were used for pDNToxR-Duet constructs. CAT ELISA results are an average of 3 independent replicates.

[1] = Trp fluorescence, phospholipid bilayer insertion; assay type: physicochemical; conditions: for insertion into phospholipid vesicles: FIG. 9
Protocol: Fluorescence intensity was measured on an ATF 105 spectrofluorometer (Aviv Biomedical, Inc., Lakewood, N.J.) using a 0.3 cm path length cuvette. Small unilamellar vesicles composed of 1-Palmitoyl-2-Oleoyl-sn-Glycero-3-Phosphocholine and 1-Palmitoyl-2-Oleoyl-sn-Glycero-3-[Phospho-rac-(1-glycerol)] (7:3) were prepared using standard ethanol dilution (Batzri S & Korn E D. Biochim. Biophys. Acta. 298, 1015-1019 (1973)): phospholipids were initially dissolved in 15 μl ethanol and then diluted to 1 ml with buffer (20 mM HEPES, pH=7.5). Samples with 1 μM anti-αIIb in the presence of 0, 100, and 500 μM total phospholipids were prepared. Excitation of 280 nm was used for emission scans ranging from 410 nm to 300 nm. Excitation and emission slit widths are 2.5 nm and 1.5 nm, respectively. An average time of 1.0 second was used.
See FIG. 9, which provides the emission scans of anti-αIIb (1 μM) and of anti-αV in the presence of three different concentrations of phospholipids. Provided are emission scans of 1 μM anti-αIIb (FIG. 9a) and 1 μM anti-αV (FIG. 9b) in presence of 0 μM (*), 100 μM (†), and 500 μM (^) of phospholipids (POPC:POPG=7:3, excitation wavelength=280 nm). The emission maximum of the Trp residue in anti-αIIb occurs at 353 nm, consistent with a fully-exposed Trp residue in the absence of membranes. In the presence of phospholipids vesicles, the emission maximum blue-shifts by 31 nm, indicating a transfer to a membrane-like environment.

αVβ3 = molecular target: T2, αVβ3 (Homo sapiens, UniProt P06756); test: Force spectroscopy (laser tweezers), platelets and osteopontin-coated beads; assay type: cell-based
T2 construct: Platelets express a second integrin with a β3 subunit, αVβ3; endogenous in cells; host or cells: gel-filtered human platelets
Description: Litvinov R I et al. Proc. Natl. Acad. Sci. USA. 99, 7426-31 (2002). Recombinant human OPN, prepared as previously described (Bennett J S et al. J. Biol. Chem. 272, 8137-40 (1997)) or purified human fibrinogen was covalently bound to 0.93 μm carboxylate-modified latex beads. Individual cells, trapped from a suspension of gel filtered human platelets or CHO cells, were manually attached to 5 μm diameter silica pedestals coated with polylysine. An OPN- or fibrinogen-coated bead, trapped by the laser light, was then brought into proximity of an immobilized cell, oscillated at 50 Hz, and then brought into repeated intermittent contact with the cell by micromanipulation. Data collection was initiated at the first contact between the bead and the cell. Rupture forces following repeated contacts were collected for periods of several seconds to one minute. Individual forces measured during each contact-detachment cycle were collected into 10 pN-wide bins. The number of events in each bin was then plotted against the average force for that bin after normalizing for the total number of interaction cycles. Thus, the percentage of events in a particular force range (bin) represents the probability of rupture events at that tension. Optical artifacts observed with or without trapped latex beads produce signals that appeared as forces below 10 pN. Therefore, rupture forces in this range were not considered when the data were analyzed. The polypeptide was added from a DMSO solution such that the final concentration of DMSO was no greater than 0.5%. All controls also had 0.5% DMSO in the buffer.
Platelets express a second integrin with a β3 subunit, αVβ3, which can bind the matrix protein osteopontin when platelets are stimulated by Mn^2+ or ADP. Bennett J S et al. J. Biol. Chem. 272, 8137-8140 (1997). To test the ability of anti-αIIb to discriminate between αIIbβ3 and αVβ3, the rupture force between platelets and osteopontin-coated beads in the presence and absence of anti-αIIb was measured.

T2 sequence (P06756 891-1048 limits assumed): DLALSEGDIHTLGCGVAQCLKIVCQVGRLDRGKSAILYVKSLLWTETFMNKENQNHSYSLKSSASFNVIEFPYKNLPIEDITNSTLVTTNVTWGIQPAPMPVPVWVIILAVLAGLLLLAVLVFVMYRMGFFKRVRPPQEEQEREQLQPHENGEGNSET
T2 sequence (P06756 31-889 partner limits assumed): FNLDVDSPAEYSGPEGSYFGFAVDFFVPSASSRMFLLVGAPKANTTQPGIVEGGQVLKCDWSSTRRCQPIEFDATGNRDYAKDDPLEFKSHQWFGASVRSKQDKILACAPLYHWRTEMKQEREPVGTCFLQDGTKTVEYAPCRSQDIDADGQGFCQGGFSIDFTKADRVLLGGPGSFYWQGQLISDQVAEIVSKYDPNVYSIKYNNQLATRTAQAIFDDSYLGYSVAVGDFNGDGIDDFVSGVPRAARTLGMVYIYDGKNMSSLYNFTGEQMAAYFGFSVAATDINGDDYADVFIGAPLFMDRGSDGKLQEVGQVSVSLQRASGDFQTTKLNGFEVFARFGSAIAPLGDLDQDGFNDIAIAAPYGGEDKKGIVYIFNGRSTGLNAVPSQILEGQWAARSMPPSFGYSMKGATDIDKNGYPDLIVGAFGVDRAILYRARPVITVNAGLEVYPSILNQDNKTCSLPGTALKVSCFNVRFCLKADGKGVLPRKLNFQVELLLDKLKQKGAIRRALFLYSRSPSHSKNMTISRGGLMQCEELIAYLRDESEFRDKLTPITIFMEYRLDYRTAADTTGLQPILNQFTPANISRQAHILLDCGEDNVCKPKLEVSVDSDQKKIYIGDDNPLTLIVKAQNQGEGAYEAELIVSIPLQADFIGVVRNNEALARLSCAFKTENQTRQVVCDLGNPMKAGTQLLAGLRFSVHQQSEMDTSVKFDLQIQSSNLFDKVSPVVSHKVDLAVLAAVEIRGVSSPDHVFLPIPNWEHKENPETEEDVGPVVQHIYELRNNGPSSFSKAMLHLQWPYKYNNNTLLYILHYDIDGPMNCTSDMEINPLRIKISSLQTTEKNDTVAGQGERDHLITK
T2 sequence (P05106 27-788 partner): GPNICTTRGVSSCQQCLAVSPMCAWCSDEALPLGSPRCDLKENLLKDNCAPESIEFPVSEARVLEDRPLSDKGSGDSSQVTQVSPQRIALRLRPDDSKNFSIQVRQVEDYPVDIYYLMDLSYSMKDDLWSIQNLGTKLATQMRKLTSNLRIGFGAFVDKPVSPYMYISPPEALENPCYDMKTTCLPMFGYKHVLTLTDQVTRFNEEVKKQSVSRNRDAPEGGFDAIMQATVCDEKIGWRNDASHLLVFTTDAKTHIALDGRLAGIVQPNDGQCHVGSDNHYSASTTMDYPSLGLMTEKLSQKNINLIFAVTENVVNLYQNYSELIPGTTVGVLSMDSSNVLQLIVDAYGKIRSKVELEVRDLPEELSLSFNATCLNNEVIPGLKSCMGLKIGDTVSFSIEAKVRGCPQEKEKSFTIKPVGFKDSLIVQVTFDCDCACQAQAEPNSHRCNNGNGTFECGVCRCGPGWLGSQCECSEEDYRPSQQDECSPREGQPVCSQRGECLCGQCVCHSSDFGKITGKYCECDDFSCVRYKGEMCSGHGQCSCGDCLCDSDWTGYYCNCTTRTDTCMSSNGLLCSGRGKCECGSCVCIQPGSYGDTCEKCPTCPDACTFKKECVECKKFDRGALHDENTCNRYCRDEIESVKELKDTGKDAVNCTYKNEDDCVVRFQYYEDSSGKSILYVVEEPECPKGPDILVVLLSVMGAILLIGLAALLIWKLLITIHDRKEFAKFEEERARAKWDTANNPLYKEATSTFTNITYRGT
T1 sequence (P06756 with tags, fused parts or gaps limits assumed): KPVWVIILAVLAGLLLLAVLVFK

| Molecule | interaction with αv TM domain (αv TM domain) | blue-shift of Trp emission maximum in the presence of phospholipid vesicles ([1]; 1 μM peptide, POPC:POPG 7:3 vesicles) [nm] | emission maximum of the Trp residue in the absence of membranes ([1]; 1 μM peptide, excitation 280 nm, 0 μM phospholipids) [nm] | insertion into phospholipid vesicles [1] | rupture force, platelets and osteopontin-coated beads (αVβ3; 0.5 μM polypeptide) | peak of rupture force between platelets and osteopontin-coated beads (αVβ3) [pN] | rupture force peak in the presence of αvβ3 antagonist XJ735 (αVβ3) |
| --- | --- | --- | --- | --- | --- | --- | --- |
| CC[C@H](C)[C@H](NC(=O)[C@H](Cc1ccccc1)NC(=O)[C@H](Cc1ccccc1)NC(=O)[C@@H]1CCCN1C(=O)[C@H](CC(C)C)NC(=O)[C@H](CC(C)C)NC(=O)[C@H](CCSC)NC(=O)[C@@H](NC(=O)[C@H](Cc1ccc(O)cc1)NC(=O)[C@H](C)NC(=O)[C@H](CCCCN)NC(=O)[C@@H](N)CCCCN)C(C)C)C(=O)NCC(=O)N[C@@H](CC(C)C)C(=O)N[C@@H](CC(C)C)C(=O)N[C@@H](CC(C)C)C(=O)NCC(=O)N[C@@H](CC(C)C)C(=O)N[C@H](C(=O)N[C@@H](Cc1ccccc1)C(=O)NCC(=O)NCC(=O)N[C@@H](C)C(=O)N[C@@H](Cc1ccccc1)C(=O)N[C@@H](Cc1c[nH]c2ccccc12)C(=O)NCC(=O)N1CCC[C@H]1C(=O)N[C@@H](C)C(=O)N[C@@H](CCCNC(=N)N)C(=O)N[C@@H](Cc1c[nH]cn1)C(=O)N[C@@H](CC(C)C)C(=O)N[C@@H](CCCCN)C(=O)N[C@@H](CCCCN)C(N)=O)[C@@H](C)CC [anti-αIIb] (H-KKAYVMLLPFFIGLLLGLIFGGAFWGPARHLKK-NH2; N-terminus assumed) | failed to significantly interact | 31 | 353 | successfully insert | No peak of rupture force was observed |  |  |
| AYVFILLSFILGTLLGFLVMFWA [anti-αV] | much greater affinity than the α2, αIIb, β1, or β3 domains |  |  | successfully insert |  | 40 | not present |
